≈ marks a conversion by molar mass, not a printed value. Read-outs that look alike come from different tables or passages of the source.
How the values were obtained:
E. faecium = test: AK assay 384-well format, Prestwick library screening; format: cell-based, Enterococcus faecium; conditions: E. faecium; 50 μM, cutoff 3-fold increase in AK
[1] = tested on: Enterococcus faecium 824-05; test: MIC testing; format: cell-based
E. faecium strain 824-05 = test: Galleria mellonella model of E. faecium infection; format: in vivo; conditions: larval survival 48 h postinoculation
Escherichia coli 8295 [2] = test: MIC testing; format: cell-based
[3] = tested on: Klebsiella pneumoniae cKP1; test: MIC testing; format: cell-based
[4] = tested on: Enterobacter cloacae PMD1001; test: MIC testing; format: cell-based
Escherichia coli 8295 [5] = test: AK assay 96-well format; format: cell-based
[6] = tested on: Acinetobacter baumannii 98-37-09; test: MIC testing; format: cell-based
[7] = tested on: S. aureus SCV strain UAMS-1112; test: Small-colony variant AK assay (with plating); format: cell-based, Staphylococcus aureus
Procedure: Thirty-six-hour cultures of S. aureus strain UAMS-1112 were used to inoculate (1:100 dilution) 100 ml of fresh MH medium and grown at 37° C. on a rotary shaker at 225 rpm to an optical density (600 nm) of 0.1 to 0.2, corresponding to ˜1×10^6 CFU ml^−1. Cells were pelleted by centrifugation and resuspended in 2 ml of fresh MH medium. Ninety-eight microliters of MH medium containing 5×10^6 bacteria and 2 μl of the indicated antibiotic were added to individual wells of a white-walled, 96-well microtiter plate. Well components were mixed by pipetting and incubated at 37° C. for 3 h. The plate was equilibrated to room temperature for 30 min. Next, 100 μl of ToxiLight AK reagent was added to each well, followed by incubation at room temperature for 30 min, and luminescence was measured using a SpectraMax M5 plate reader.
SCV are slow-growing populations of bacterial species that have been hypothesized to cause latent or recurrent infections and are tolerant of standard antibiotic treatment regimens. Based on the aberrant SCV growth characteristics, typical growth-based HTS assays would be difficult to employ. Accordingly, the ability of the AK assay to identify agents that kill S. aureus SCV strain UAMS-1112 was tested. […].

Staphylococcus aureus = test: MIC testing; format: cell-based
[8] = tested on: Pseudomonas aeruginosa PA01; test: MIC testing; format: cell-based
[9] = tested on: Enterococcus faecium 824-05; test: AK assay 96-well format; format: cell-based
[10] = tested on: Enterobacter cloacae PMD1001; test: AK assay 96-well format; format: cell-based
[11] = tested on: Klebsiella pneumoniae cKP1; test: AK assay 96-well format; format: cell-based
[12] = tested on: Pseudomonas aeruginosa PA01; test: AK assay 96-well format; format: cell-based
[13] = tested on: S. aureus strain UAMS-1 static biofilms; test: AK assay of established biofilms (with plating); format: cell-based, Staphylococcus aureus; conditions: 10×MIC; for decrease in biofilm-associated bacteria / biofilm cell viability (plating): S. aureus UAMS-1 48-h biofilm, vs untreated
[14] = tested on: Acinetobacter baumannii 98-37-09; test: AK assay 96-well format; format: cell-based; conditions: for Fold increase in AK signal: Acinetobacter baumannii 98-37-09
[15] = tested on: A. baumannii strain 98-37-09 static biofilms; test: AK assay of established biofilms (with plating); format: cell-based, Acinetobacter baumannii; conditions: A. baumannii 98-37-09 biofilm; 10×MIC overnight; vs untreated
Procedure: Biofilms were grown as previously described (Beenken et al. Infect. Immun. 71: 4206-4211 (2003); Musken et al. Nat. Protoc. 5: […] (2010); Tomaras et al. Microbiology 149: 3473-3483 (2003)). Briefly, P. aeruginosa and A. baumannii were cultured overnight in Luria-Bertani medium and then used to seed 96-well, flat-bottom plates. Plates were incubated at 37° C. in a humidified incubator for 48 h to allow the formation of static biofilms. Nonadherent cells were removed by aspiration and washing with sterile phosphate-buffered saline (PBS). […] Following treatment, 100 μl of each biofilm supernatant was transferred to 96-well, white-walled plates, 100 μl of ToxiLight AK reagent was added to each well, mixtures were incubated for 30 min at room temperature, and luminescence was measured using a SpectraMax M5 plate reader. Biofilm-associated bacteria were enumerated by resuspending each biofilm in fresh PBS and plating. […] Established S. aureus biofilms were washed once with PBS and then treated with a 100 μl of ToxiLight lysis buffer for 3 h, after which the amount of AK released into supernatants was measured, as described above.
Following overnight antibiotic treatment, biofilm-associated bacteria were enumerated by plating, and the corresponding supernatants were analyzed by the AK assay.

[16] = 82405, Enterococcus faecium 824-05, read-out: MIC
[17] = S. aureus UAMS-1112, 1× or 10×MIC for 3 h
[18] = Klebsiella pneumoniae cKP1, read-out: MIC
[19] = 983709, Acinetobacter baumannii 98-37-09, read-out: MIC
[20] = Staphylococcus aureus USA300-0114, read-out: MIC

| Molecule | MIC [1, 16] [µg/mL] | MIC (Escherichia coli 8295 [2]) [µg/mL] | MIC [4] [µg/mL] | Fold increase in AK signal (Escherichia coli 8295 [5]; treatment 0.5×MIC) [fold] | Fold increase in AK signal (Escherichia coli 8295 [5]; treatment 1.0×MIC) [fold] | decrease in SCV viability (plating) [7, 17] | increase in AK signal compared to mock-treated cells [7, 17] | MIC (Staphylococcus aureus; Staphylococcus aureus) [µg/mL] | MIC [8] [µg/mL] | Fold increase in AK signal ([9]; treatment 0.5×MIC) [fold] | Fold increase in AK signal ([9]; treatment 1.0×MIC) [fold] | Fold increase in AK signal ([10]; treatment 0.5×MIC) [fold] | Fold increase in AK signal ([10]; treatment 1.0×MIC) [fold] | MIC [6, 19] [µg/mL] | Fold increase in AK signal ([11]; treatment 1.0×MIC) [fold] | Fold increase in AK signal ([12]; treatment 0.5×MIC) [fold] | Fold increase in AK signal ([12]; treatment 1.0×MIC) [fold] | MIC (Staphylococcus aureus; [20]) [µg/mL] | also measured |
| --- | --- | --- | --- | --- | --- | --- | --- | --- | --- | --- | --- | --- | --- | --- | --- | --- | --- | --- | --- |
| CC/C(=C(\c1ccccc1)c1ccc(OCCN(C)C)cc1)c1ccccc1 [Tamoxifen, tamoxifen] | 8 (≈ 21.5 µM) | – | – | – | – | – | – | – | – | – | – | – | – | – | – | – | – | – | activity in AK Prestwick screen (E. faecium): identified; higher survival than vehicle-treated controls (E. faecium strain 824-05; 80 mg kg-1 at 2 h and 24 h): 4.2 fold; higher survival than vehicle-treated controls (E. faecium strain 824-05; 160 mg kg-1 at 2 h and 24 h): 7 fold |
| CN[C@H](CC(C)C)C(=O)N[C@H]1C(=O)N[C@@H](CC(N)=O)C(=O)N[C@H]2C(=O)N[C@H]3C(=O)N[C@H](C(=O)N[C@H](C(=O)O)c4cc(O)cc(O)c4-c4cc3ccc4O)[C@H](O)c3ccc(c(Cl)c3)Oc3cc2cc(c3O[C@@H]2O[C@H](CO)[C@@H](O)[C@H](O)[C@H]2O[C@H]2C[C@](C)(N)[C@H](O)[C@H](C)O2)Oc2ccc(cc2Cl)[C@H]1O [Vancomycin, vancomycin] | – | 16 (≈ 11 µM) | > 256 | 1 | 2 | no effect | no change | 2 (≈ 1.38 µM) | > 256 | 1 | 2 | – | – | – | – | – | – | – | MIC ([3]; Klebsiella pneumoniae, CKP1): > 256 µg/mL; MIC ([1]; Enterococcus faecium, 82405): 2 µg/mL (≈ 1.38 µM); MIC ([6]; Acinetobacter baumannii, 983709): 64 µg/mL (≈ 44.2 µM); MIC (Staphylococcus aureus; Staphylococcus aureus, USA300): 1 µg/mL (≈ 0.69 µM) |
| C[C@@H](O)[C@H]1C(=O)N2C(C(=O)O)=C(S[C@@H]3CN[C@H](C(=O)N(C)C)C3)[C@H](C)[C@H]12 [Meropenem, meropenem] | – | – | – | 60 | 85 | 0.5 log | 2.5 fold | 2 (≈ 5.22 µM) | – | – | – | 99 | 296 | 2 (≈ 5.22 µM) | 220 | 45 | 39 | 4 (≈ 10.4 µM) | MIC (Escherichia coli 8295 [2]; read-out: MIC): 2 µg/mL (≈ 5.22 µM); MIC [3, 18]: 2 µg/mL (≈ 5.22 µM); MIC ([4]; read-out: MIC): 2 µg/mL (≈ 5.22 µM); MIC ([1]; Enterococcus faecium, 82405): > 256 µg/mL; MIC ([8]; read-out: MIC): 2 µg/mL (≈ 5.22 µM) |
| CC(=O)NC[C@H]1CN(c2ccc(N3CCOCC3)c(F)c2)C(=O)O1 [Linezolid, linezolid] | 16 (≈ 47.4 µM) | > 256 | > 256 | – | – | – | – | 2 (≈ 5.93 µM) | > 256 | 2 | 2 | – | – | 256 (≈ 759 µM) | – | – | – | 2 (≈ 5.93 µM) | MIC ([3]; Klebsiella pneumoniae, CKP1): > 256 µg/mL |
| CN(C)c1ccc(O)c2c1C[C@H]1C[C@H]3[C@H](N(C)C)C(O)=C(C(N)=O)C(=O)[C@@]3(O)C(O)=C1C2=O [Minocycline, minocycline] | 1 (≈ 2.19 µM) | – | – | 4 | 38 | – | – | 8 (≈ 17.5 µM) | – | 3 | 4 | 4 | 9 | 1 (≈ 2.19 µM) | 1 | 1 | 6 | 1 (≈ 2.19 µM) | MIC (Escherichia coli 8295 [2]; read-out: MIC): 16 µg/mL (≈ 35 µM); MIC [3, 18]: 64 µg/mL (≈ 140 µM); MIC ([4]; read-out: MIC): 4 µg/mL (≈ 8.74 µM); Fold increase in AK signal ([11]; treatment 0.5×MIC): 1 fold; MIC ([8]; read-out: MIC): 32 µg/mL (≈ 69.9 µM) |
| CC(C)(C)c1ccc(C(O)CCCN2CCC(C(O)(c3ccccc3)c3ccccc3)CC2)cc1 (stereo not shown) [Terfenadine] | – | – | – | – | – | – | – | – | – | – | – | – | – | 64 (≈ 136 µM) | – | – | – | – | increase in AK release ([13]; 48-h S. aureus UAMS-1 biofilms): 2.7 fold; decrease in biofilm-associated bacteria / biofilm cell viability (plating) [13]: 1.1 log; increase in AK signal compared to mock-treated cells ([7]; S. aureus small-colony-variant UAMS-1112, 10×MIC): 3.3 fold; MIC (Staphylococcus aureus; Staphylococcus aureus, S. aureus UAMS-1112 (small-colony variant), read-out: MIC): 2 µg/mL (≈ 4.24 µM) |
| colistin | – | 8 | 2 | 15 | 22 | – | – | – | 4 | – | – | 10 | 32 | – | 33 | 5 | 12 | – | MIC ([3]; Klebsiella pneumoniae cKP1): 8 µg/mL; MIC ([1]; Enterococcus faecium 824-05): >256 µg/mL; MIC ([6]; Acinetobacter baumannii 98-37-09): 4 µg/mL; AK release ([14]; A. baumannii 98-37-09, 0.25×, 0.5×, and 1×MIC): robustly detected; Fold increase in AK signal ([14]; treatment 0.5×MIC): 17 fold; Fold increase in AK signal ([14]; treatment 1.0×MIC): 49 fold; Fold increase in AK signal ([11]; treatment 0.5×MIC): 34 fold; decrease in biofilm-associated bacteria (plating) [15]: 1.8 log; MIC (Staphylococcus aureus; Staphylococcus aureus RN4220): >256 µg/mL; MIC (Staphylococcus aureus; Staphylococcus aureus USA300-0114): >256 µg/mL |
| O=C(O)c1cn(C2CC2)c2cc(N3CCNCC3)c(F)cc2c1=O [Ciprofloxacin, ciprofloxacin] | – | – | – | – | – | no effect | no change | – | – | – | – | – | – | – | – | – | – | – | decrease in biofilm-associated bacteria / biofilm cell viability (plating) [13]: 0.7 log |

Reference: patent US10004701B2, “Methods and compositions for treating infection” (UNIVERSITY OF ROCHESTER, priority 2012, dated 2018)
